Test results taken from patent publication US20210283163A1, “COMPOSITIONS AND METHODS FOR THE TREATMENT OF ACUTE AND CHRONIC PRURITIS” (Duke University, priority 2018, published 2021).

Legend:
TRPV3 = target: T1, TRPV3 (Mus musculus, UniProt Q8K424); experiment: Whole-cell patch clamp in CHO cells transfected with mouse Trpv3 cDNA; assay type: cell-based; settings: miR-711 10 μM; carvacrol 300 μM
T1 construct: expressed in transfected cells; host or cells: CHO cells (ATCC CRL-9096), plasmid pcDNA3.1-mTrpv3, a gift from Korea University
T1 sequence (Q8K424 1-791): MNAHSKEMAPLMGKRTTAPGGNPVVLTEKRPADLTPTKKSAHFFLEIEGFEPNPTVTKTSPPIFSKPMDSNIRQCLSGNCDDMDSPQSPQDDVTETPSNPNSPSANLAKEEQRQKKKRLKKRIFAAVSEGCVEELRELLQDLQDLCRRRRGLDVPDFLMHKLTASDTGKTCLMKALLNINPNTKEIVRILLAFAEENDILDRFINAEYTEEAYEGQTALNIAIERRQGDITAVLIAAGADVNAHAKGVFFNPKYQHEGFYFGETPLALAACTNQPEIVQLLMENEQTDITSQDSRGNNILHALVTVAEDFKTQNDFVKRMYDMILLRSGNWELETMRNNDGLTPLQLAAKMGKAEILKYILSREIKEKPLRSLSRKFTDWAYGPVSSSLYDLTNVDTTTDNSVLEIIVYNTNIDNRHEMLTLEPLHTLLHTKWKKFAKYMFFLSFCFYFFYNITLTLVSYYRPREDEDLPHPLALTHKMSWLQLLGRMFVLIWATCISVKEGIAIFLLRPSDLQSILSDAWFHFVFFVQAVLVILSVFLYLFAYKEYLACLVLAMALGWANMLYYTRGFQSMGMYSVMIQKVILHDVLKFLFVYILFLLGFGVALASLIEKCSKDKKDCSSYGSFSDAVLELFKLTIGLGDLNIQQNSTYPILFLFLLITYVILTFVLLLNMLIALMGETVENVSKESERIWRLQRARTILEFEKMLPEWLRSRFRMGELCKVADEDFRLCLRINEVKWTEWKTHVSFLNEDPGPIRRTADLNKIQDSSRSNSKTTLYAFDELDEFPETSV
Experimental: (§1) Constructs. The cDNAs of mouse pcDNA3.1-Trpa1, pcDNA3.1-Trpv1, pcDNA3.1-Trpv2, pcDNA3.1-Trpv3, and pcDNA3.1-Trpv4 were kindly provided Dr. Sun Work Hwang from Korea University. Mouse Trpa1 cDNA was subcloned into pCGN-HA backbone (Addgene) using In-Fusion HD Cloning Kit (Clontech Laboratories, CA). Q5 Site-Directed Mutagenesis Kit was used to generate mTrpa1 mutant (M1-M13) based on pCGN-mTrpa1.
(§2) Cell Culture and Transfection. CD4^+ Myla cell line was cultured in RPMI 1640 media (GIBCO), supplemented with 2 mM Glutamine (GIBCO), 100 U/mL IL-2 (Sigma), 100 U/mL IL-4 (Sigma), and 10% human AB serum (Sigma). HuT 102 cell line was cultured in RPMI 1640 supplemented with pyruvate, HEPES, and 10% (v/v) fetal bovine serum (HyClone). HEK293-hTRPA1 stable cell line was cultured in MEM (GIBCO) containing 2 mM Glutamine, 4 μg/mL Blasticidin, 10% FBS (v/v). B16 and CHO cells were cultured in high glucose (4.5 g/L) Dulbecco's Modified Eagle's Medium (GIBCO) containing 10% (v/v) fetal bovine serum (GIBCO). Culture media were supplemented with 50 units/mL of penicillin and 50 μg/mL streptomycin, and cultures were maintained with 5% CO2 in 37° C. incubator. Transfection (2 μg cDNA) was performed with Lipofectamine™ 2000 Reagent (Invitrogen) at 80% confluency and the transfected cells were cultured in the same media for 48 hr before electrophysiological and biochemical studies. […]

TRPV4 = target: T2, TRPV4 (Mus musculus, UniProt Q9EPK8); experiment: Whole-cell patch clamp in CHO cells transfected with mouse Trpv4 cDNA; assay type: cell-based; settings: miR-711 10 μM; GSK1016790A 1 μM
T2 construct: expressed in transfected cells; host or cells: CHO cells (ATCC CRL-9096), plasmid pcDNA3.1-mTrpv4, a gift from Korea University
T2 sequence (Q9EPK8 whole entry): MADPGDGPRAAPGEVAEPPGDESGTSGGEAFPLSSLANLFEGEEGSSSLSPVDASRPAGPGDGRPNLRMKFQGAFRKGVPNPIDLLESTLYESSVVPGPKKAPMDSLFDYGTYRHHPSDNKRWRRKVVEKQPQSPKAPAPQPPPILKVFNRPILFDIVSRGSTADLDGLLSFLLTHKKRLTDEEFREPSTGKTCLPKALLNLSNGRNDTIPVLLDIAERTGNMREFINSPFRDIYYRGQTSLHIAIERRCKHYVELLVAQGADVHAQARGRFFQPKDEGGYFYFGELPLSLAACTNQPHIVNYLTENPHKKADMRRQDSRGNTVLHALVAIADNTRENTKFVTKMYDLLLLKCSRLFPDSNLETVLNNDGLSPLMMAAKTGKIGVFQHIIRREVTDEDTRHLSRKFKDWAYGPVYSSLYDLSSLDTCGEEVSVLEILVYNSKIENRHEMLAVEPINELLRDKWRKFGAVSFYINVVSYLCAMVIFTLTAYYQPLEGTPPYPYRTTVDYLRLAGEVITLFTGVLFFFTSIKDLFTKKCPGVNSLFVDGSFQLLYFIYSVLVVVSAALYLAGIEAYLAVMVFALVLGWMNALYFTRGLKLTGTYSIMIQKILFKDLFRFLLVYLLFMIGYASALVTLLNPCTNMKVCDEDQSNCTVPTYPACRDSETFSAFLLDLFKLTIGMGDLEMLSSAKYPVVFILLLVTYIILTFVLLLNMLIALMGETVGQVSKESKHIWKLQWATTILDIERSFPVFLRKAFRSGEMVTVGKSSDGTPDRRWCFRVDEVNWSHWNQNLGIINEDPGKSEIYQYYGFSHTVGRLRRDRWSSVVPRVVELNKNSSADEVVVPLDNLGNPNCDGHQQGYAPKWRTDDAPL
Experimental: as §1, §2

mTRPA1 mutants (M1-M13) = target: T3, mTRPA1 mutants (M1-M13) (Mus musculus, UniProt Q8BLA8, L939A/P937A/Y936A); experiment: Whole-cell patch clamp in CHO cells transfected with mutant mTrpa1 cDNAs (M1-M13); assay type: cell-based; settings: M13, triple mutations (Y936, P937, and L939)
T3 construct: HA; expressed in transfected cells; host or cells: CHO cells (ATCC CRL-9096), transient transfection
T3 sequence (Q8BLA8 whole entry Y936A/P937A/L939A): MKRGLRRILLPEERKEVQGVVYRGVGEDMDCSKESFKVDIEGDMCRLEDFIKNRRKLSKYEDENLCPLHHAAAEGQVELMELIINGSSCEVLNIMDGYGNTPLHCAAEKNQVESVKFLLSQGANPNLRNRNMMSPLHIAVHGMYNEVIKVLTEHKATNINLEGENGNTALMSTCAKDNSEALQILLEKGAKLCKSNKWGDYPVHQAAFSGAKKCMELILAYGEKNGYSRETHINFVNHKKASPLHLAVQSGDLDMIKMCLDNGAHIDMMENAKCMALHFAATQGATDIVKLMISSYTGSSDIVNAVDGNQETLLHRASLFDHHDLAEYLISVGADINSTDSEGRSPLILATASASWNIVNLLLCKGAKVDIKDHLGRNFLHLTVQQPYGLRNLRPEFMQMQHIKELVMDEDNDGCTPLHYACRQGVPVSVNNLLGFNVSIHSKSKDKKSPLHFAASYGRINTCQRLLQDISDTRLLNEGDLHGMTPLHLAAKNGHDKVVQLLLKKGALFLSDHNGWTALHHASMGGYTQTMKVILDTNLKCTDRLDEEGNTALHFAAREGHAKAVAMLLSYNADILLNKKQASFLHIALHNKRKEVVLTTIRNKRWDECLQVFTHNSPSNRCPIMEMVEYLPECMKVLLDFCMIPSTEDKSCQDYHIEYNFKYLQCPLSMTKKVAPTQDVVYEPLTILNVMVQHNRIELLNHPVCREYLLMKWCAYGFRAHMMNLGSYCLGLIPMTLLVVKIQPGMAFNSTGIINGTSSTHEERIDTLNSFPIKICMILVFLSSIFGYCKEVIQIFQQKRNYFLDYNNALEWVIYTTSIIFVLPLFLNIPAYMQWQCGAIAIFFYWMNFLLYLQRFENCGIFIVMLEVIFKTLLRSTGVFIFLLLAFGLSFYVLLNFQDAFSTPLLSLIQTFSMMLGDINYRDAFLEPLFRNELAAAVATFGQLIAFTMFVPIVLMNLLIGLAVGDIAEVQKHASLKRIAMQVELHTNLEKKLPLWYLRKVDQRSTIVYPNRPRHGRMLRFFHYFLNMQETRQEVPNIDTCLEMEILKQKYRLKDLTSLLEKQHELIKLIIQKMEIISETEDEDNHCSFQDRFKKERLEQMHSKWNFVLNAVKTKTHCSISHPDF
Experimental: as §1
Cell Culture and Transfection. CD4^+ Myla cell line was cultured in RPMI 1640 media (GIBCO), supplemented with 2 mM Glutamine (GIBCO), 100 U/mL IL-2 (Sigma), 100 U/mL IL-4 (Sigma), and 10% human AB serum (Sigma). HuT 102 cell line was cultured in RPMI 1640 supplemented with pyruvate, HEPES, and 10% (v/v) fetal bovine serum (HyClone). HEK293-hTRPA1 stable cell line was cultured in MEM (GIBCO) containing 2 mM Glutamine, 4 μg/mL Blasticidin, 10% FBS (v/v). B16 and CHO cells were cultured in high glucose (4.5 g/L) Dulbecco's Modified Eagle's Medium (GIBCO) containing 10% (v/v) fetal bovine serum (GIBCO). Culture media were supplemented with 50 units/mL of penicillin and 50 μg/mL streptomycin, and cultures were maintained with 5% CO2 in 37° C. incubator. Transfection (2 μg cDNA) was performed with Lipofectamine™ 2000 Reagent (Invitrogen) at 80% confluency and the transfected cells were cultured in the same media for 48 hr before electrophysiological and biochemical studies.
Whole-Cell Patch Clamp Recordings in HEK293 Cells, CHO Cells, and DRG Neurons. Whole-cell patch clamp recordings were performed at room temperature using an Axopatch-200B amplifier (Axon Instruments) with a Digidata 1440B (Axon Instruments). In this study, we only examined small-diameter mouse DRG neurons (<25 μM) and small-diameter human DRG neurons (<55 μM). The patch pipettes were pulled from borosilicate capillaries (World Precision Instruments) using a P-97 Flaming/Brown micropipette puller (Sutter Instrument). Pipette resistance was 4-6 MΩ for whole-cell and outside-out recording. For inward current recordings in mouse and human DRG neurons, HEK293 cells, and CHO cells, the internal solution contains (in mM): 140 CsCl, 10 EGTA, 10 HEPES, and 2 Mg-ATP, adjusted to pH 7.3 with CsOH. Whole cell recordings were performed in an extracellular solution that contains (in mM): 140 NaCl, 5 KCl, 2 MgCl2, 10 HEPES, and 10 glucose, adjusted to pH 7.4 with NaOH and osmolarity to 300-310 mOsm. […] Action potential recordings were performed in small-diameter DRG neurons, with the following solutions: i) internal pipette solution contains: 126 mM K-gluconate, 10 mM NaCl, 1 mM MgCl2, 10 mM EGTA, 10 mM HEPES and 2 mM Na-ATP, adjusted to pH 7.4 with KOH and osmolarity to 295-300 mOsm), and ii) extracellular solution contains: 140 mM NaCl, 5 mM KCl, 2 mM MgCl2, 2 mM CaCl2, 10 mM HEPES, 10 mM glucose, adjusted to pH 7.4 with KOH.

mice = experiment: Back model: intradermal nape injection, scratching; assay type: in vivo, mouse; settings: 0.01-1 mM, 10 μL
Experimental: Behavioral Assessment for Scratching (Itch) and Wiping (Pain). Mice were shaved on the cheek or nape after a brief anesthesia with isoflurane. Before experiments, mice were habituated in small plastic chambers (14×18×12 cm) daily for two days. The room temperature and humidity remained stable for all the experiments. […] After the injection, the number of scratches in 60 min was counted. A scratch was counted when a mouse lifted its hind paw to scratch the shaved region and returned the paw to the floor or to the mouth. A bout of wiping was defined as a continuous wiping movement with a forepaw directing at the area of the injection area (Shimada and LaMotte, Pain 2008, 139, 681-687). Scratching and wiping behavior was videoed for 30 min or 60 min using Sony HDR-CX610 camera. The video was subsequently played back offline and the numbers of scratches and wipes were quantified in a blinded manner.

With “miR-711: mmu-miR-711: gggacccggggagagauguaag (SEQ ID NO: 5) (GGGACCCGGGGAGAGAUGUAAG; chemistry not given here)” the inward currents (TRPV3) was “failed to trigger inward currents”, the inward currents (TRPV4) was “failed to trigger inward currents” and the current in mutant (mTRPA1 mutants (M1-M13)) was “further reduction”. The “scratching after intradermal injection on the nape of neck” value (mice) was “dose-dependent scratching”.
